In patent publication US20260217701A1, “SELECTIVE BET INHIBITORS AND USES THEREOF” (Tay Therapeutics Limited, priority 2022, published 2026):
Like-named read-outs stand apart in the source and are kept apart here.

Assay: Dog PK study #3 (Compound A PO once daily 5 days, 5/10/20 mg/kg; PK, body weight, hematology)
Format: in vivo, beagle dogs
Conditions: for Tmax / AUC(0-inf) / Cmax / MRT inf / MRT last / half-life / AUC(0-t): male, beagle, dog, plasma, po; for AUC(0-inf): read-out: AUC0-inf; for Cmax: read-out: Cmax; for MRT inf: read-out: MRT0-inf; for MRT last: read-out: MRT0-last; for half-life: read-out: T½ (converted)
Description: For the third dog pharmacokinetic study, three solutions of different concentrations of Compound A were prepared in 5% DMSO/15% PEG-400/80% (10% VE-TPGS) as outlined in Table 2E. The Compound A solutions were administered to animals orally (PO) once daily over a five-day period. Body weight was recorded prior to dosing, and detailed clinical observations were made prior to dosing and throughout the study, as needed.
Animals were divided into Day 1 and Day 5 sample collection groups, with animals in the Day 1 collection group having blood samples taken prior to dosing and at 0.25, 0.5, 1, 2, 4, 8, and 24 hours after dosing on day 1. Animals in the Day 5 collection group having blood samples taken prior to dosing and at 0.25, 0.5, 1, 2, 4, 8, and 24 hours after dosing on day 5. Study groups are outlined in Table 3D.
Blood samples (~0.3 mL) were collected on day according to the following schedule (0.25, 0.5, 1, 2, 4, 8, and 24 h) after day 5 administration of Compound A by venipuncture of peripheral veins except for the dosing vein, and EDTA-K2 was used as anticoagulant. Within 30 minutes of collection, the samples were centrifuged at approximately 2000 times g-force for 10 minutes at 4° C. to obtain blood plasma. The plasma samples were immediately divided into two aliquots (~75 μL each), transferred to a cryogenic vial, and stored in a freezer at −75±15° C. prior to analysis.
The concentration of Compound A in the blood plasma was determined through LC-MS as previously described. Briefly, the experiments were conducted on a DMPK-LCMS-14-SMBA Triple Quad 6500 Plus instrument with an ACQUITY UPLC BEH C18 1.7 μm (50×2.1 mm) column. The matrix was male beagle dog plasma potassium (K2) EDTA A gradient of 95% water (0.1% formic acid and 2 mM HCOONH4)/95% acetonitrile (0.1% formic acid and 2 mM HCOONH4) was used as the mobile phase. The sample flow rate was 0.6 mL/min.
The samples were then vortex-mixed for 10 minutes at 800 rpm and centrifuged for 15 minutes at 3220×g at 4° C. 50 μL aliquots of supernatant were transferred to a clean 96-well plate and centrifuged for 5 minutes at 3220×g at 4° C. Samples were then injected into the LC/MS/MS system for quantitative analysis.
The gathered data were used for pharmacokinetic calculations using T1/2, CO, AUClast, AUCinf, MRTinf, Cl, Vss, and Number of Points for Regression as parameters.
The cell composition (hematology) of blood samples was analyzed at day 5. Analyses identified the total number of white blood cells, neutrophils, lymphocytes, monocytes, eosinophils, basophils, and platelets in collected samples.

[1] = 5 mg/kg, Day 1, 5 mg/kg dose PO, individual animals
[2] = 5 mg/kg, Day 1, 5 mg/kg dose PO, mean
[3] = 5 mg/kg, Day 5, 5 mg/kg dose PO, individual animals
[4] = 5 mg/kg, Day 5, 5 mg/kg dose PO, mean
[5] = 10 mg/kg, Day 1, 10 mg/kg dose PO, individual animals
[6] = 10 mg/kg, Day 1, 10 mg/kg dose PO, mean
[7] = 10 mg/kg, Day 5, 10 mg/kg dose PO, individual animals
[8] = 10 mg/kg, Day 5, 10 mg/kg dose PO, mean
[9] = 20 mg/kg, Day 1, 20 mg/kg dose PO, individual animals
[10] = 20 mg/kg, Day 1, 20 mg/kg dose PO, mean
[11] = 20 mg/kg, Day 5, 20 mg/kg dose PO, individual animals
[12] = 20 mg/kg, Day 5, 20 mg/kg dose PO, mean
[13] = single PO administration Day 1, 10.0 over 5.00 mg/kg, dose ratio 2.00
[14] = single PO administration Day 1, 20.0 over 5.00 mg/kg, dose ratio 4.00
[15] = single PO administration Day 1, 20.0 over 10.0 mg/kg, dose ratio 2.00

## Cn1cc(-c2ccccc2)c(-c2cn(C)c(=O)c3[nH]c(-c4cnn(C(F)(F)F)c4)cc23)cc1=O [Compound A, 6-methyl-4-(1-methyl-2-oxo-5-phenyl-1,2-dihydropyridin-4-yl)-2-(1-(trifluoromethyl)-1H-pyrazol-4-yl)-1,6-dihydro-7H-pyrrolo[2,3-c]pyridin-7-one]
[1]
  Tmax: 8 h
  AUC(0-inf): 7.88 µg·h/mL
  Cmax: 0.785 µg/mL
  MRT inf: 9.3 h
  MRT last: 9.77 h
  half-life: 5.63 h
[2]
  AUC(0-t): 9.5 µg·h/mL
  Tmax: 6 h
  Cmax: 0.736 µg/mL
  MRT last: 8.8 h
[3]
  AUC(0-t): 17.8 µg·h/mL
  Tmax: 2 h
  Cmax: 1.27 µg/mL
  MRT inf: 20 h
  MRT last: 9.78 h
[4]
  AUC(0-t): 14.5 µg·h/mL
  Tmax: 2 h
  AUC(0-inf): 18.9 µg·h/mL
  Cmax: 1.16 µg/mL
  MRT inf: 15.1 h
  MRT last: 8.93 h
  half-life: 9.96 h
[5]
  AUC(0-t): 19.5 µg·h/mL
  Tmax: 4 h
  AUC(0-inf): 20.5 µg·h/mL
  Cmax: 2.01 µg/mL
  MRT inf: 8.8 h
  MRT last: 7.59 h
  half-life: 5.24 h
[6]
  AUC(0-t): 17.5 µg·h/mL
  Tmax: 3 h
  AUC(0-inf): 18.6 µg·h/mL
  Cmax: 1.73 µg/mL
  MRT inf: 9.17 h
  MRT last: 7.72 h
  half-life: 5.6 h
[7]
  AUC(0-t): 20.5 µg·h/mL
  Tmax: 2 h
  AUC(0-inf): 23 µg·h/mL
  Cmax: 1.74 µg/mL
  MRT inf: 11.3 h
  MRT last: 8.5 h
  half-life: 7.3 h
[8]
  AUC(0-t): 28.3 µg·h/mL
  Tmax: 2 h
  AUC(0-inf): 34.1 µg·h/mL
  Cmax: 2.26 µg/mL
  MRT inf: 13.4 h
  MRT last: 8.95 h
  half-life: 8.8 h
[9]
  AUC(0-t): 49.4 µg·h/mL
  Tmax: 4 h
  Cmax: 4.33 µg/mL
  MRT inf: 9.65 h
  MRT last: 8.19 h
[10]
  AUC(0-t): 67.9 µg·h/mL
  Tmax: 4 h
  AUC(0-inf): 84.7 µg·h/mL
  Cmax: 5.17 µg/mL
  MRT inf: 13.9 h
  MRT last: 9.15 h
  half-life: 8.67 h
[11]
  Tmax: 2 h
  Cmax: 3.51 µg/mL
[12]
  AUC(0-t): 30.2 µg·h/mL
  Tmax: 2 h
  AUC(0-inf): 1070 µg·h/mL
  Cmax: 2.87 µg/mL
  MRT inf: 483 h
  MRT last: 6.3 h
  half-life: 334 h
One animal of the highest dose, 5 day PO study
  mortality: found dead on day 6
[13]
  AUC0-last Ratio (dose proportionality): 1.85
  Cmax Ratio (dose proportionality): 2.35
[14]
  AUC0-last Ratio (dose proportionality): 7.15
  Cmax Ratio (dose proportionality): 7.02
[15]
  AUC0-last Ratio (dose proportionality): 3.87
  Cmax Ratio (dose proportionality): 2.99
